According to patent publication US9822069B2, “Urea derivative or pharmacologically acceptable salt thereof” (KYORIN PHARMACEUTICAL CO. LTD., priority 2013, dated 2017):

Target: T1, human FPRL1 (Homo sapiens, UniProt P25090)
T1 construct: expressed in transfected cells; host or cells: HEK293 (JCRB9068, NIBIO), transient transfection with pCMV-script vectors using Lipofectamine 2000
T1 sequence (P25090 1-351): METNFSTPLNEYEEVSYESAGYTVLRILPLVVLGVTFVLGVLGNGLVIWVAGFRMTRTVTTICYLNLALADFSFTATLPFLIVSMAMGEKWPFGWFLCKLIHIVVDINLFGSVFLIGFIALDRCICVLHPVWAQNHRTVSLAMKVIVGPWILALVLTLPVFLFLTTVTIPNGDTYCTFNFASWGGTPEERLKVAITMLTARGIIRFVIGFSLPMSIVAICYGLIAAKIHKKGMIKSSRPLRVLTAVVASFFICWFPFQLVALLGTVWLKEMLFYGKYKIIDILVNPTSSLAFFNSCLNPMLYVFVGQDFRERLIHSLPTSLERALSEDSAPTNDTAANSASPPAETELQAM
Experiment: Measurement test of agonist activity on human FPRL1 (test of calcium mobilization in cell, HEK293 with human FPRL1 and Gα15 expression vectors)
Type: cell-based
Conditions: calcium mobilization in HEK293 cells with human FPRL1 and Gα15 expression vectors
Description: Measurement Test of Agonist Activity on Human FPRL1
(1-1) Construction of Human FPRL1 Expression Vector
Human FPRL (SEQ ID NO: 3) was amplified in a PCR reaction from cDNA derived from a monocytic leukemia cell line THP-1 (TIB-202, ATCC) as a template using a forward primer shown in SEQ ID NO: 1, a reverse primer shown in SEQ ID NO: 2, and KOD-plus-ver. 2 (KOD-211, TOYOBO CO., LTD.). The amplified PCR product and pCMV-script vector (212220, STRATAGENE) were digested with Hind III (1060A, Takara Bio Inc.) and XhoI (1094A, Takara Bio Inc.), and the resultant digest was ligated with Ligation high ver. 2 (LGK-201, TOYOBO CO., LTD.). The ligation product was transformed into DH5α (DNA-901, TOYOBO CO., LTD.), cultured on a 100 μg/mL kanamycin-containing LB medium, and purified with HiSpeed Plasmid Maxi Kit (12662, QIAGEN).
(1-2) Construction of Human Gα15 Expression Vector
Human Gα15 (SEQ ID NO: 6) was amplified in a PCR reaction from cDNA derived from a myeloid leukemia cell line HL-60 (CCL-240, ATCC) as a template using a forward primer shown in SEQ ID NO: 4, a reverse primer shown in SEQ ID NO: 5, and KOD-plus-ver. 2. The amplified PCR product and pCMV-script vector were digested with Hind III and XhoI, and the resultant digest was ligated with Ligation high ver. 2. The ligation product was transformed into DH5α, cultured on a 100 μg/mL kanamycin-containing LB medium, and purified with HiSpeed Plasmid Maxi Kit.
(2-1) Method for Culturing and Subculturing HEK293
HEK293 (JCRB9068, NIBIO) was cultured in an incubator at 5% CO2 and 37° C. using DMEM (11885-092, GIBCO) containing 10% FBS and 1× Penicillin-Streptomycin (15140-122, GIBCO). Subculture was carried out as followings: The cells that reached 80 to 90% confluency were washed with PBS(−), separated using 0.25% Trypsin-EDTA (25200-072, GIBCO), centrifuged, re-suspended in a fresh medium, and then seeded in Collagen Type 1 Coated dish (4020-010, IWAKI) at a split ratio of 1:8 (cultured for 3 days).
(2-2) Introduction of Human FPRL1 and Gα15 Expression Vectors
HEK293 that reached 80 to 90% confluency was washed with PBS(−), separated using 0.25% Trypsin-EDTA, centrifuged, and re-suspended in a fresh medium excluding 1× Penicillin-Streptomycin. The cells were inoculated in a Collagen Type 1 coated 6-well plate (4810-010, IWAKI) to 5×10^5 cells/2.5 mL/well and cultured overnight. On the next day, human FPRL1 and Gα15 expression vectors were introduced using Lipofectamine 2000 transfection reagent (11668-019, Life technologies). First, the human FPRL1 and Gα15 expression vectors were diluted with Opti-MEM I Reduced Serum Medium (31985-070, GIBCO) to 2 μg/250 μL/well and Lipofectamine 2000 transfection reagent was diluted with Opti-MEM I Reduced Serum Medium to be 4 μL/250 μL/well. The vectors and reagent were softly diffused, and incubated at room temperature for 5 minutes. The vector solution was mixed with Lipofectamine 2000 transfection reagent in equal amounts. In order to form a composite of the vectors and Lipofectamine 2000 transfection reagent, the mixture was incubated at room temperature for 20 minutes, and added at 500 μL/well to the medium of inoculated cells. The treated cells were cultured for 24 hours, inoculated in Poly-D-Lysine coated 96-well plate (356640, BD Biosciences) at a cell density of 7×10^4 cells/100 μL/well, and cultured for another 24 hours. The resultant cells were used in a measurement test of calcium mobilization in the cells.
(3) Evaluation of Agonist Activity on Human FPRL1 (Test of Calcium Mobilization in Cell)
An appropriate amount of each test compound was first weighed, and dissolved to 10^−2 M by addition of dimethyl sulfoxide (DMSO). […]

| SMILES | EC50 |
| --- | --- |
| COc1ccc([C@@H]2CN(CCO)C(=O)C2NC(=O)Nc2ccc(Cl)cc2)cc1 (mixture of isomers) [Example 14-1, (±)-trans-1-(4-Chlorophenyl)-3-[1-(2-hydroxyethyl)-4-(4-methoxyphenyl)-2-oxopyrrolidin-3-yl]urea] | 0.32 nM |
| COc1ccc([C@@H]2CNC(=O)[C@H]2NC(=O)Nc2ccc(F)cc2)c(Cl)c1 (relative stereo) [EXAMPLE 1-10, 1-[(3S*,4R*)-4-(2-chloro-4-methoxyphenyl)-2-oxopyrrolidin-3-yl]-3-(4-fluorophenyl)urea] | 3.98 nM |
| C/N=C1\NC[C@@H](c2c(F)cc(OC)cc2F)[C@@H]1NC(=O)Nc1ccc(F)cc1 (relative stereo) [EXAMPLE 32-6, 1-[(3S*,4R*,Z)-4-(2,6-difluoro-4-methoxyphenyl)-2-(methylimino)pyrrolidin-3-yl]-3-(4-fluorophenyl)urea] | 0.37 nM |
| COc1cc(F)c([C@@H]2CN=C(Nc3ccccc3)[C@H]2NC(=O)Nc2ccc(F)cc2)c(F)c1 (relative stereo) [EXAMPLE 32-18, 1-[(3R*,4S*)-3-(2,6-difluoro-4-methoxyphenyl)-5-(phenylamino)-3,4-dihydro-2H-pyrrol-4-yl]-3-(4-fluorophenyl)urea] | 0.54 nM |
| COc1cc(F)c([C@@H]2CNC(=O)[C@H]2NC(=O)Nc2ncc(Cl)s2)c(F)c1 (relative stereo) [Example 1-26, (−)-1-(5-chlorothiazol-2-yl)-3-[(3S*,4R*)-4-(2,6-difluoro-4-methoxyphenyl)-2-oxopyrrolidin-3-yl]urea] | 1.91 nM |
| COc1cc(F)c([C@@H]2CNC(=O)[C@H]2NC(=O)Nc2ccc(Cl)cn2)c(F)c1 (relative stereo) [Example 1-32, (−)-1-(5-chloropyridin-2-yl)-3-[(3S*,4R*)-4-(2,6-difluoro-4-methoxyphenyl)-2-oxopyrrolidin-3-yl]urea] | 4.54 nM |
| COc1cc(F)c([C@@H]2CNC(=O)[C@H]2NC(=O)Nc2cc3ccccc3s2)c(F)c1 (relative stereo) [Example 1-35, (−)-1-(benzo[b]thiophen-2-yl)-3-[(3S*,4R*)-4-(2,6-difluoro-4-methoxyphenyl)-2-oxopyrrolidin-3-yl]urea] | 0.76 nM |
| COc1cc(F)c([C@@H]2CNC(=O)[C@H]2NC(=O)Nc2ccc(C)s2)c(F)c1 (relative stereo) [Example 1-39, (−)-1-[(3S*,4R*)-4-(2,6-difluoro-4-methoxyphenyl)-2-oxopyrrolidin-3-yl]-3-(5-methylthiophen-2-yl)urea] | 3.51 nM |
| COc1ccc([C@@H]2[C@H](C)NC(=O)[C@H]2NC(=O)Nc2ccc(F)cc2)cc1 (relative stereo) [Example 1-40, (−)-1-(4-fluorophenyl)-3-[(3S*,4R*,5S*)-4-(4-methoxyphenyl)-5-methyl-2-oxopyrrolidin-3-yl]urea] | 1.44 nM |
| COc1ccc([C@H]2[C@H](NC(=O)Nc3ccc(F)cc3)C(=O)N[C@@H]2C)cc1 (relative stereo) [Example 1-41, (−)-1-(4-fluorophenyl)-3-[(3S*,4R*,5R*)-4-(4-methoxyphenyl)-5-methyl-2-oxopyrrolidin-3-yl]urea] | 0.73 nM |
| O=C(Nc1ccc(Cl)cc1)N[C@H]1C(=O)NC[C@@H]1c1ccccc1 (relative stereo) [Example 1-43, (+)-1-(4-chlorophenyl)-3-[(3R*,4S*)-2-oxo-4-phenylpyrrolidin-3-yl]urea] | 5.13 nM |
| COc1cc(F)c([C@@H]2CNC(=O)[C@H]2NC(=O)Nc2cccc(O)c2)c(F)c1 (relative stereo) [Example 1-57, 1-[(3S*,4R*)-4-(2,6-difluoro-4-methoxyphenyl)-2-oxopyrrolidine-3-yl]-3-(3-hydroxyphenyl)urea] | 0.16 nM |
| COc1cc(F)c([C@@H]2CNC(=O)[C@H]2NC(=O)Nc2cc(C)ns2)c(F)c1 (relative stereo) [Example 1-58, (−)-1-[(3S*,4R*)-4-(2,6-difluoro-4-methoxyphenyl)-2-oxopyrrolidin-3-yl]-3-(3-methylisothiazol-5-yl)urea] | 0.32 nM |
| COc1cc(F)c([C@@H]2CNC(=O)[C@H]2NC(=O)Nc2ccc(C3CC3)cc2)c(F)c1 (relative stereo) [Example 1-62, (−)-1-(4-cyclopropylphenyl)-3-[(3S*,4R*)-4-(2,6-difluoro-4-methoxyphenyl)-2-oxopyrrolidin-3-yl]urea] | 1.05 nM |
| COc1cc(F)c([C@@H]2CNC(=O)[C@H]2NC(=O)Nc2ccc(C(F)(F)F)cc2)c(F)c1 (relative stereo) [Example 1-63, (−)-1-[(3S*,4R*)-4-(2,6-difluoro-4-methoxyphenyl)-2-oxopyrrolidin-3-yl]-3-[4-(trifluoromethyl)phenyl]urea] | 0.92 nM |
| COc1cc(F)c([C@@H]2CNC(=O)[C@H]2NC(=O)Nc2ccc(C#N)c(O)c2)c(F)c1 (relative stereo) [Example 1-73, 1-(4-cyano-3-hydroxyphenyl)-3-[(3S*,4R*)-4-(2,6-difluoro-4-methoxyphenyl)-2-oxopyrrolidin-3-yl]urea] | 1.2 nM |
| O=C(Nc1ccc(F)cc1)N[C@@H]1C(=O)NC[C@H]1c1c(F)cc(OC(F)F)cc1F (relative stereo) [Example 1-74, 1-{(3S*,4R*)-4-[4-(difluoromethoxy)-2,6-difluorophenyl]-2-oxopyrrolidin-3-yl}-3-(4-fluorophenyl)urea] | 1.8 nM |
| O=C(Nc1ccc(F)cc1)N[C@@H]1C(=O)NC[C@H]1c1cc2ccoc2cc1F (relative stereo) [Example 1-77, (−)-1-[(3S*,4R*)-4-(6-fluorobenzofuran-5-yl)-2-oxopyrrolidin-3-yl]-3-(4-fluorophenyl)urea] | 5.2 nM |
| O=C(Nc1ccc(F)cc1)N[C@@H]1C(=O)NC[C@H]1c1c(F)cc2c(c1F)CCO2 (relative stereo) [Example 1-80, 1-[(3S*,4R*)-4-(4,6-difluoro-2,3-dihydrobenzofuran-5-yl)-2-oxopyrrolidin-3-yl]-3-(4-fluorophenyl)urea] | 0.69 nM |
| O=C(Nc1cc2ccccc2s1)N[C@@H]1C(=O)NC[C@H]1c1cc2c(cc1F)OCC2 (relative stereo) [Example 1-85, (−)-1-(benzo[b]thiophen-2-yl)-3-[(3S*,4R*)-4-(6-fluoro-2,3-dihydrobenzofuran-5-yl)-2-oxopyrrolidin-3-yl]urea] | 3.5 nM |
| COc1cc(F)c([C@@H]2CNC(=O)[C@H]2NC(=O)Nc2ccc(OC(F)(F)F)cc2)c(F)c1 (relative stereo) [Example 7-1, (−)-1-[(3S*,4R*)-4-(2,6-Difluoro-4-methoxyphenyl)-2-oxopyrrolidin-3-yl]-3-[4-(trifluoromethoxy)phenyl]urea] | 1.09 nM |
| COc1cc(F)c([C@@H]2CNC(=O)[C@H]2NC(=O)Nc2ccc(Oc3ccccc3)cc2)c(F)c1 (relative stereo) [Example 7-7, (−)-1-[(3S*,4R*)-4-(2,6-difluoro-4-methoxyphenyl)-2-oxopyrrolidin-3-yl]-3-(4-phenoxyphenyl)urea] | 1.56 nM |
